Experimental data from BindingDB's records for doi:10.1021/jm990343b (Purdue University, 1999).
Where “and” joins values, the source holds several entries; their conditions need not be identical. Equal entries are not always repeated.

target: T1, Gag-Pol polyprotein [588-1027]/[588-1147] (Human immunodeficiency virus 1, UniProt P04585); assay: HIV-1 RT Assay; settings: pH 7.9
T1 construct: 588-1027; 588-1147

Row | SMILES | IC50
1 | CCC(CCCC=C(c1cc(Cl)c(OC)c(CO)c1)c1cc(Cl)c(OC)c(CO)c1)C1OCCO1 (stereo not drawn) [(3-chloro-5-{1-[3-chloro-5-(hydroxymethyl)-4-methoxyphenyl]-6-(1,3-dioxolan-2-yl)oct-1-en-1-yl}-2-methoxyphenyl)methanol] | 3.2 µM and 31.6 µM
2 | COC(=O)CC=C(c1cc(Cl)c(OC)c(C(=O)OC)c1)c1cc(Cl)c(OC)c(C(=O)OC)c1 [methyl 3-chloro-5-{1-[3-chloro-4-methoxy-5-(methoxycarbonyl)phenyl]-4-methoxy-4-oxobut-1-en-1-yl}-2-methoxybenzoate] | > 100 µM
3 | COC(=O)CCC=C(c1cc(Cl)c(OC)c(C(=O)OC)c1)c1cc(Cl)c(OC)c(C(=O)OC)c1 [methyl 3-chloro-5-{1-[3-chloro-4-methoxy-5-(methoxycarbonyl)phenyl]-5-methoxy-5-oxopent-1-en-1-yl}-2-methoxybenzoate] | > 100 µM
